# Read-outs that look alike come from different tables or passages of the source.
# Legend:
# A549 cells = assay: High-throughput proliferation (HTP) assay for A549 cells (CellTiter-Glo, 7 days); type: cell-based; settings: Homo sapiens, 168 h, read-out: A549 SMARCA2 IC50
# Procedure, shortened: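 Seven-day growth of A549 (62.5 cells/well, F12K with 10% HI-FBS, 37° C.) with compound, read by CellTiter-Glo ATP luminescence. Percent inhibition scaled between DMSO wells and 10 μM Doxorubicin wells, then fitted for EC50 and IC50.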
# H358 cells = assay: High-throughput proliferation (HTP) assay for H358 cells (CellTiter-Glo, 7 days); type: cell-based; settings: Homo sapiens, NCI-H358, 168 h, read-out: H358 SMARCA2 IC50
# Procedure, shortened: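 Cells were plated at 1,000 cells/well in RPMI 1640 + 10% HI-FBS + 1% pen/strep on pre-dispensed compound and incubated 7 days at 37 °C, 5% CO2. Viability was read as ATP luminescence with CellTiter-Glo after 30 min at RT. DMSO served as 0% and 10 µM doxorubicin as 100% inhibition for EC50/IC50.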
# FL-SMARCA4 = FL-SMARCA4 (Homo sapiens, UniProt P51532); assay: SMARCA4 ATPase activity assay (ADP-Glo, chicken mononucleosome substrate)
# Chain of FL-SMARCA4 (P51532 whole entry, canonical isoform): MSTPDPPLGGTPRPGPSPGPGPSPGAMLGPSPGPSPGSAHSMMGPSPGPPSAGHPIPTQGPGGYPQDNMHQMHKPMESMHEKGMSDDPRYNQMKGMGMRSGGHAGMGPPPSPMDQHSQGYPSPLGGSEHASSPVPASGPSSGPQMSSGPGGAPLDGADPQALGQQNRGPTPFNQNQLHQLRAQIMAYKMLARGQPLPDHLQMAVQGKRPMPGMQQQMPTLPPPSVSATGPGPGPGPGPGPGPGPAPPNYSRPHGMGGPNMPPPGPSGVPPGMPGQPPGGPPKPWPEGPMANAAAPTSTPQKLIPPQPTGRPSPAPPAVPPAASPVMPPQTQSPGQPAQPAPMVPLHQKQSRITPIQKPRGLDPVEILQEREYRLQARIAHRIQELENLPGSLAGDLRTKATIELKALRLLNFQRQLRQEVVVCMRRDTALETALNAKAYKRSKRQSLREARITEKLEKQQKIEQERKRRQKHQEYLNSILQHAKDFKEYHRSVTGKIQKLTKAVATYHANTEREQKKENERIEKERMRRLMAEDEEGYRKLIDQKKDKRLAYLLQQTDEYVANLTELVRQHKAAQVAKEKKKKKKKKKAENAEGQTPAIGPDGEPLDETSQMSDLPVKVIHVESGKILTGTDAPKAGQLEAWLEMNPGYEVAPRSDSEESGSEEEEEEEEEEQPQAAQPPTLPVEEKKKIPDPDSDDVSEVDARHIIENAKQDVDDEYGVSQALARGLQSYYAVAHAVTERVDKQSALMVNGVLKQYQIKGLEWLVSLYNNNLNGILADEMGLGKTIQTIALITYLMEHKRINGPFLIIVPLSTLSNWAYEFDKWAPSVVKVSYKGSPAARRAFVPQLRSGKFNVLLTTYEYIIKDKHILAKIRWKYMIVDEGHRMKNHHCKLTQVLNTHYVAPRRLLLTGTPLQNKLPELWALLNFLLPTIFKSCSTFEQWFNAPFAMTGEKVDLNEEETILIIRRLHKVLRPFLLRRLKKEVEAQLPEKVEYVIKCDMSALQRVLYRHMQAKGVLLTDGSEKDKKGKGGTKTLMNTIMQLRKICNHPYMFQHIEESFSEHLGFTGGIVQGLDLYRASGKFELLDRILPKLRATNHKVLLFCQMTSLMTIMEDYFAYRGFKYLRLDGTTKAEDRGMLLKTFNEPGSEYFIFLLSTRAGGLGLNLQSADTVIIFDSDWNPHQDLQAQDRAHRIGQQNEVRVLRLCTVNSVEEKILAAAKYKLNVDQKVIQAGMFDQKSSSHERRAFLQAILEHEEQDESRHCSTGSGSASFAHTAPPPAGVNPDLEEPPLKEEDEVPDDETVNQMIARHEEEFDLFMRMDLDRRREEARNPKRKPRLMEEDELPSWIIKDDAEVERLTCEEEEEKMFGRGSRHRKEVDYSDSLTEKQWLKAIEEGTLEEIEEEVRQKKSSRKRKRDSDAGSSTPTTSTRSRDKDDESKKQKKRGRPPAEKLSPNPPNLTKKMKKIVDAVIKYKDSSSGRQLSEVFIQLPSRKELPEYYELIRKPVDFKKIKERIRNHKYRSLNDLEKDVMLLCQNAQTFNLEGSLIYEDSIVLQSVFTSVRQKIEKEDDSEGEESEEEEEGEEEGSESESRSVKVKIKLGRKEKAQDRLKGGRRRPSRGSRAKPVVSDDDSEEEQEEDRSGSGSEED
# [1] = target: T1, FL-SMARCA2 (full-length human SMARCA2 isoform 1) (Homo sapiens, UniProt P51531); assay: SMARCA2 ATPase activity assay (ADP-Glo, chicken mononucleosome substrate); type: biochemical; settings: ATPase assay, enzyme 5 nM, ATP 250 uM, chicken mononucleosome 10 nM, 30 min preincubation
# T1 construct: FLAG tag (YKDDDDK) (C); made in house; host or cells: Sf21 insect cells (baculovirus, pFastBacI)
# T1 sequence (P51531 with tags, fused parts or gaps): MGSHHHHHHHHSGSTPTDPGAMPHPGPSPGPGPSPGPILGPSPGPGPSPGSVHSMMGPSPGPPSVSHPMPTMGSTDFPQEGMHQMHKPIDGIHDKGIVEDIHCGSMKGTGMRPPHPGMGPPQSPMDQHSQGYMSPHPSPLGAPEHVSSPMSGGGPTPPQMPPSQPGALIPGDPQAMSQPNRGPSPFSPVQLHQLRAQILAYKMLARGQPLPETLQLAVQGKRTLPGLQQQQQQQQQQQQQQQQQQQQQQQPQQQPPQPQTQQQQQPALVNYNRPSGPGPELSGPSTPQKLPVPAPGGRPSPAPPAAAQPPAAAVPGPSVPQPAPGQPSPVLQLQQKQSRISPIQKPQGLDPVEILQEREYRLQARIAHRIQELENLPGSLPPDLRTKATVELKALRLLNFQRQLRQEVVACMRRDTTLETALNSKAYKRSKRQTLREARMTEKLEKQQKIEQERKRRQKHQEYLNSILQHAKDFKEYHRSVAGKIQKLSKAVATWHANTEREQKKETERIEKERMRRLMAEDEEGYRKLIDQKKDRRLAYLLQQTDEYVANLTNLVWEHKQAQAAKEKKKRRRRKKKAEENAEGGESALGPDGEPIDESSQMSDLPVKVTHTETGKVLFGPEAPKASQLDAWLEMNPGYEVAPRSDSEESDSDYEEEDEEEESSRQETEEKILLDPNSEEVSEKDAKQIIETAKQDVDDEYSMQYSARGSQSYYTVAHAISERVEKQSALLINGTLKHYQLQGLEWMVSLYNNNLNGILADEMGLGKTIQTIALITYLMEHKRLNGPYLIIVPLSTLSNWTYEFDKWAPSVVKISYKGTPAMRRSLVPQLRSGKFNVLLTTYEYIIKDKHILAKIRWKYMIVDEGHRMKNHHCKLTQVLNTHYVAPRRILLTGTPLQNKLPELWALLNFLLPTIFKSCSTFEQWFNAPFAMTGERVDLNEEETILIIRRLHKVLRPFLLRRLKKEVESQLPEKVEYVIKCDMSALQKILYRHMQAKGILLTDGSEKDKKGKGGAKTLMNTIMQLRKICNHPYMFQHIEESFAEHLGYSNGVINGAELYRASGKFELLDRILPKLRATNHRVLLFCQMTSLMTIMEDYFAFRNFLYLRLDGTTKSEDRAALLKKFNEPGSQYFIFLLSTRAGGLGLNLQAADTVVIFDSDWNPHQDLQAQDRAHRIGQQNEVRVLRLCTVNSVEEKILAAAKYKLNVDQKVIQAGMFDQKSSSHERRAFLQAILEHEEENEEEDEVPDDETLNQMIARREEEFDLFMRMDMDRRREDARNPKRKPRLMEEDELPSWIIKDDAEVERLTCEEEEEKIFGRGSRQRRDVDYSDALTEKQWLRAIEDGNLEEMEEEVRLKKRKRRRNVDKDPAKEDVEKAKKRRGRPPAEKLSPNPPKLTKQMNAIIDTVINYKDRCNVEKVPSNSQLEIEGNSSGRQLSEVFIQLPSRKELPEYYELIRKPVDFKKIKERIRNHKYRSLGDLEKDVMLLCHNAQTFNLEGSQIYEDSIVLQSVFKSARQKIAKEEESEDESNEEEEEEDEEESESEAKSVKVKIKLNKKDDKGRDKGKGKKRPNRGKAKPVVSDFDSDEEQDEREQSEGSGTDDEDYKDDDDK
# [2] = FL-SMARCA4 IC>50, Table 3c.2, ATPase assay, enzyme 5 nM, ATP 250 uM, chicken mononucleosome 10 nM, 30 min preincubation
# [3] = Table 3d.1, read-out: FL-SMARCA2 IC>50
SMILES,IC50 (A549 cells),IC50 (H358 cells),IC50 (FL-SMARCA4; [2]),IC50 ([1]; Table 3c.1),IC50 (FL-SMARCA4; FL-SMARCA4 IC50),"IC50 [1, 3]"
N#Cc1ccc(C#Cc2cc(C(=O)Nc3cc(F)c(=O)n(CC(F)F)c3)sc2Cl)cc1 [Compound 43c],2940 nM,> 10000 nM,329 nM,130 nM,–,–
Cn1cc(C#Cc2cc(C(=O)Nc3cc(F)c(=O)n(CC(F)F)c3)sc2Cl)ccc1=O [Compound 60d],3650 nM,> 10000 nM,–,–,36.3 nM,18 nM
Cn1cnc(C#Cc2cc(C(=O)Nc3cc(F)c(=O)n(CC(F)F)c3)sc2Cl)c1 [Compound 60c],> 10000 nM,> 10000 nM,492 nM,251 nM,–,–
CC(N)CC#Cc1cc(C(=O)Nc2cc(F)c(=O)n(CC(F)F)c2)sc1Cl (stereo not drawn) [Compound 139d],> 10000 nM,> 10000 nM,–,–,6700 nM,3100 nM
O=C(Nc1cc(F)c(=O)n(CC(F)F)c1)c1cc(C#Cc2cn3c(n2)CNCC3)c(Cl)s1 [Compound 147c],> 10000 nM,> 10000 nM,7960 nM,5240 nM,–,–
CC(C)(F)c1sc(C(=O)Nc2cc(F)c(=O)n(CC(F)F)c2)cc1C#N [Compound 84d],> 10000 nM,> 10000 nM,–,–,> 50000 nM,8580 nM
O=C(Nc1cc(F)c(=O)n(CC(F)F)c1)c1cc(C#C[C@H]2CCC[C@@H](O)C2)c(Cl)s1 [Compound 120d],2120 nM,> 10000 nM,–,–,201 nM,70 nM
N#Cc1cc(C(=O)Nc2cc([N+](=O)[O-])c(=O)n(CC(F)F)c2)sc1C(F)(F)F [Compound 117d],1960 nM,2270 nM,–,–,> 50000 nM,22400 nM
CCn1cc(C#Cc2cc(C(=O)Nc3cc(F)c(=O)n(CC(F)F)c3)sc2Cl)cn1 [Compound 54c],1920 nM,> 10000 nM,166 nM,45.2 nM,–,–
O=C(Nc1cc(F)c(=O)n(CC(F)F)c1)c1cc(C#Cc2cccnc2)c(C(F)(F)F)s1 [Compound 65c],4320 nM,> 10000 nM,154 nM,33.7 nM,–,–
Cn1cnc(C#Cc2cc(C(=O)Nc3cc(F)c(=O)n(CC(F)F)c3)sc2Cl)n1 [Compound 67c],> 10000 nM,> 10000 nM,807 nM,371 nM,–,–
Cc1cnc(C#Cc2cc(C(=O)Nc3cc(F)c(=O)n(CC(F)F)c3)sc2Cl)s1 [Compound 70c],6250 nM,9160 nM,385 nM,260 nM,–,–
O=C(Nc1cc(F)c(=O)n(CC(F)F)c1)c1cc(Cl)c(Cl)s1 [Compound 47c],1410 nM,> 10000 nM,177 nM,65 nM,–,–
Cn1cc(C#Cc2cc(C(=O)Nc3cc(F)c(=O)n(CC(F)F)c3)sc2Cl)cn1 [Compound 5c],1160 nM,> 10000 nM,75.9 nM,28.5 nM,–,–
O=C(Nc1cc(F)c(=O)n(CC(F)F)c1)c1cc(C#Cc2ccccn2)c(Cl)s1 [Compound 81c],2010 nM,> 10000 nM,198 nM,79.8 nM,–,–
COc1cncc(C#Cc2cc(C(=O)Nc3cc(F)c(=O)n(CC(F)F)c3)sc2Cl)c1 [Compound 61d],4330 nM,> 10000 nM,–,–,655 nM,197 nM
O=C(Nc1cc(F)c(=O)n(CC(F)F)c1)c1cc(C#CC2CCO2)c(Cl)s1 (stereo not drawn) [Compound 77d],7440 nM,> 10000 nM,–,–,463 nM,160 nM
O=C(Nc1cc(F)c(=O)n(CC(F)F)c1)c1cc(C#C[C@H]2C[C@@H](CO)C2)c(Cl)s1 [Compound 134d],1330 nM,> 10000 nM,–,–,58.7 nM,18.8 nM

SMILES,IC50 (A549 cells),IC50 (H358 cells),IC50 (FL-SMARCA4; [2]),IC50 ([1]; Table 3c.1),IC50 (FL-SMARCA4; FL-SMARCA4 IC50),"IC50 [1, 3]"
N#Cc1cc(C(=O)Nc2cc(O)c(=O)n(CC(F)F)c2)sc1C(F)(F)F [Compound 88d],> 10000 nM,> 10000 nM,–,–,3970 nM,576 nM
CNC(=O)C#Cc1cc(C(=O)Nc2cc(F)c(=O)n(CC(F)F)c2)sc1Cl [Compound 72d],5760 nM,> 10000 nM,–,–,1310 nM,481 nM
CC(=O)Nc1cc(C#Cc2cc(C(=O)Nc3cc(F)c(=O)n(CC(F)F)c3)sc2Cl)ccn1 [Compound 143c],458 nM,> 10000 nM,8.17 nM,6.08 nM,–,–
CC#Cc1cc(C(=O)Nc2cc(F)c(=O)n(CC(F)F)c2)sc1Cl [Compound 85c],2370 nM,> 10000 nM,233 nM,81.1 nM,–,–
N#Cc1ncc(C#Cc2cc(C(=O)Nc3cc(F)c(=O)n(CC(F)F)c3)sc2Cl)o1 [Compound 100d],4350 nM,6240 nM,–,–,8.53 nM,6.06 nM
O=C(Nc1cc(F)c(=O)n(CC(F)F)c1)c1cc(C(F)(F)F)c(Cl)s1 [Compound 37c],9050 nM,> 10000 nM,2490 nM,482 nM,–,–
O=C(Nc1cc(F)c(=O)n(CC(F)F)c1)c1cc(C#CC(F)(F)F)c(Cl)s1 [Compound 74d],1650 nM,2440 nM,–,–,1010 nM,462 nM
CC(=O)Nc1cccc(C#Cc2cc(C(=O)Nc3cc(F)c(=O)n(CC(F)F)c3)sc2Cl)c1 [Compound 75c],1780 nM,> 10000 nM,54.5 nM,20 nM,–,–
O=C(Nc1cc(F)c(=O)n(CC(F)F)c1)c1cc(C#CC2COC2)c(C(F)F)s1 [Compound 80c],3980 nM,> 10000 nM,494 nM,161 nM,–,–
N#Cc1cc(C(=O)Nc2cc(F)c(=O)n(CC(F)F)c2)sc1C(F)(F)Cl [Compound 78d],6370 nM,> 10000 nM,–,–,377 nM,57.5 nM
O=C1Cc2ccc(C#Cc3cc(C(=O)Nc4cc(F)c(=O)n(CC(F)F)c4)sc3Cl)cc2N1 [Compound 140c],> 10000 nM,> 10000 nM,63.3 nM,34 nM,–,–
N#Cc1sc(C(=O)Nc2cc(F)c(=O)n(CC(F)F)c2)cc1C#Cc1ccncc1 [Compound 134c],909 nM,3890 nM,12.8 nM,8.12 nM,–,–
NCCOCC#Cc1cc(C(=O)Nc2cc(F)c(=O)n(CC(F)F)c2)sc1Cl [Compound 111d],> 10000 nM,> 10000 nM,–,–,5100 nM,1700 nM
Cc1cc(NC(=O)c2cc(Cl)c(C(F)(F)F)s2)cn(CC(F)F)c1=O [Compound 82d],4730 nM,> 10000 nM,–,–,8090 nM,1360 nM
O=C(Nc1cc(F)c(=O)n(CC(F)F)c1)c1cc(C#CC(=O)N2CCCC2)c(Cl)s1 [Compound 70d],1960 nM,9840 nM,–,–,4750 nM,1690 nM
N#Cc1cc(NC(=O)c2cc(Cl)c(C(F)(F)F)s2)cn(CC(F)F)c1=O [Compound 86d],3950 nM,8560 nM,–,–,512 nM,101 nM
Cc1nc(C#Cc2cc(C(=O)Nc3cc(F)c(=O)n(CC(F)F)c3)sc2Cl)cs1 [Compound 61c],1510 nM,> 10000 nM,86.7 nM,26.7 nM,–,–
O=C(Nc1cc(F)c(=O)n(CC(F)F)c1)c1cc(C#CC2OCCCO2)c(Cl)s1 [Compound 101d],3740 nM,> 10000 nM,–,–,285 nM,166 nM

# Source: patent US20220356174A1, “PYRIDIN-2-ONE COMPOUNDS USEFUL AS SMARCA2 ANTAGONISTS” (Epizyme, Inc., priority 2018, published 2022)
